Experimental findings from US6197944A, “DNA molecules stabilized by modifications of the 3'-terminal phosphodiester linkage” (Integrated DNA Technologies, Inc., priority 1994, dated 2001) are described below.

One series concerns β-globin mRNA. Briefly: In vitro translation in rabbit reticulocyte lysate, β-globin synthesis. The following applies: in words; MA-15 complementary to 12 of 15 residues of β-globin mRNA. It counts as biochemical, mouse. The protocol:
For the purpose of these experiments two oligonucleotides were synthesized: 5'-GAGCACCATGGTTTC, MA-15; and 5'-[…],(SEQ ID NO:2) CODMB-25. Both were prepared on a Beckman automated DNA synthesizer using the phophoramidite method. MA-15 is complementary to a sequence within mouse α-globin mRNA spanning the initiation codon. CODMB-25 hybridizes to a sequence within the coding region of mouse β-globin mRNA. Mouse globin mRNA was isolated from reticulocytes obtained from mice rendered anemic by treatment with phenylhydrazine as described by Goosens and Kan (Methods in Enzymology (Antonini, E., Rossi-Bernadi, L., and Chiancone, E., eds.) 76, 805-817, 1981). In vitro translation reactions were carried out in the rabbit reticulocyte lysate system. The reticylocyte lysates used were purchased from ProMega Biotec, and contain RNaseH. Translation reactions were programmed with 1 ug of total mouse reticulocyte RNA. The reactions were allowed to proceed for 1 hour at 30° C. Each sample contained 45 uCi of [^35 S]methionine (Amersham) in a total volume of 25 ul. Protein synthesis was measured by incorporation of [^35 S]methionine into material precipitatable in 10% trichloracetic acid. In control reactions in the absence of oligonucleotide, synthesis of β globin accounts for 60% of the incorporated counts; α globin synthesis accounts for 40% of the radioactivity incorporated into protein. […]

Series [1] relates to mouse globin mRNA (MA-15: mouse α-globin mRNA; CODMB-25: mouse β-globin mRNA). In words: In vitro translation of globin mRNA in rabbit reticulocyte lysate (hybrid-arrested translation, role of RNaseH). It counts as biochemical. The following applies: for inhibition of translation of the targeted mRNA: in words; for % Inhibition Of Globin Synthesis, +poly rA/oligo dT: with poly rA/oligo dT 500 ug/ml (RNaseH inhibitor); for % Inhibition Of Globin Synthesis, +poly rA/oligo dT / % Inhibition Of Globin Synthesis, -poly rA/oligo dT: CODMB-25 4 uM, 1 hour at 30° C.; for % Inhibition Of Globin Synthesis, -poly rA/oligo dT: without poly rA/oligo dT. Here is the method:
For the purpose of these experiments two oligonucleotides were synthesized: 5'-GAGCACCATGGTTTC, MA-15; and 5'-[…],(SEQ ID NO:2) CODMB-25. Both were prepared on a Beckman automated DNA synthesizer using the phophoramidite method. MA-15 is complementary to a sequence within mouse α-globin mRNA spanning the initiation codon. CODMB-25 hybridizes to a sequence within the coding region of mouse β-globin mRNA. Mouse globin mRNA was isolated from reticulocytes obtained from mice rendered anemic by treatment with phenylhydrazine as described by Goosens and Kan (Methods in Enzymology (Antonini, E., Rossi-Bernadi, L., and Chiancone, E., eds.) 76, 805-817, 1981). In vitro translation reactions were carried out in the rabbit reticulocyte lysate system. The reticylocyte lysates used were purchased from ProMega Biotec, and contain RNaseH. Translation reactions were programmed with 1 ug of total mouse reticulocyte RNA. The reactions were allowed to proceed for 1 hour at 30° C. Each sample contained 45 uCi of [^35 S]methionine (Amersham) in a total volume of 25 ul. Protein synthesis was measured by incorporation of [^35 S]methionine into material precipitatable in 10% trichloracetic acid. In control reactions in the absence of oligonucleotide, synthesis of β globin accounts for 60% of the incorporated counts; α globin synthesis accounts for 40% of the radioactivity incorporated into protein. Reactions were carried out in both the presence and absence of poly rA/oligo dT (500 ug/ml).

Series [2] can be described thus: Degradation of oligonucleotide in K562 cell extracts. It counts as in vitro ADME, human. The protocol:
The purpose of these studies was to determine the pathways by which oligonucleotides are degraded by nucleases present within human cells. Radiolabeled derivatives of MA-15 were prepared as in Example 3. Degradation of the oligonucleotide was studied in extracts prepared from the human erythroleukemia cell line K562. The K562 cell line was first isolated by Lozzio, C. B., and Lozzio, B. B., Blood (1975) 45, 321-334, and has been studied extensively as a model for red cell differentiation. The cells were suspended in 10 mM tris buffer pH 7.4 with 5 mM MgCl2, 1 mM CaCl2, 100 mM NaCl, and 0.1% Triton® X-100 (polyethylene glycol 4-isooctylphenyl ether, and homogenized with a cold motor driven teflon pestle homogenizer for 30 seconds. Cell membranes and organelles were further disrupted by sonication by five 15 second bursts using a Biosonic sonifier set on full power. Remaining cell debris was removed from the extracts by centrifugation for 5 minutes at 12,000×g.
The radiolabeled oligonucleotide was incubated in K562 cell extracts under the same conditions as decribed in Example 3 and the degradation products analyzed by polyacrylamide gel electrophoresis. […] The half-life for cleavage of the 3'-terminal internucleotide link was 2 minutes. […] The half-life for cleavage of the 5'-terminal nucleotide unit from the chain by this mechanism was 20 minutes.
The derivative of MA-15 described in Example 5 in which the 3'-terminal internucleotide link was modified as a 2,2,2-trichloro-1,1-dimethylethyl phosphotriester was also used in this study. Extracts from K562 cells were prepared as in Example 4. The modified oligonucleotide was incubated in the cell extracts at 37° C. Aliquots were removed at various times, and the products of degradation were analyzed by polyacrylamide gel electrophoresis.

For a further series, the system named is mouse α-globin mRNA. Briefly: Cleavage of globin mRNA by E. coli RNaseH after hybridization with oligonucleotide (Northern blot). The series is classed as biochemical. The settings on record: 1.1 nanomoles oligonucleotide in 22 microliters, 2 units E. coli RNaseH, 30 minutes at 37° C. Here is the method:
Mouse globin mRNA was isolated from mice rendered anemic by treatment with phenylhydrazine as described in Example 1. Three oligonucleotides were compared in this study; MA-15, the derivative of MA-15 utilized in Examples 5 and 6 in which the 3'-terminal internucleotide link is modified as a trichlorodimethylethyl phosphotriester (MA-15-TCDM), and a derivative further modified at the 5'-terminal OH group with naphthylisocyanate (NPH-MA-15-TCDM). Mouse globin mRNA (2 micrograms) was added to 1.1 nanomoles of the oligonucleotide in a final volume of 22 microliters containing 10 mM tris-HCl buffer at pH 7.5, 5 mM MgCl2, 25 mM NaCl, and 1 mM dithiothreitol. The reactions were initiated by the addition of 2 units of E. coli RNaseH, and were allowed to proceed for 30 minutes at 37° C. The reactions were stopped by extraction of the samples with a 1:1 mixture of phenol and chloroform. The mRNA species remaining after digestion with RNaseH were isolated by precipitation with ethanol and analyzed on Northern blots.
The RNA samples were reacted with 1 M glyoxal in a 1:1 (volume/volume) mixture of 10 mM sodium phosphate buffer at pH 6.5 and dimethylsulfoxide for 1 hour at 50° C., and then electrophoresed on a 1.5% agarose gel. The RNAs were transferred from the gel to a Gene Screen Plus filter (DuPont-NEN) by capillary blotting according to the method described by the manufacturer. […]

Series [3] is classed as in vitro ADME, human. The following applies: 37° C., 15 minutes to 2 hours, heparinized blood. The protocol: The oligonucleotide MA-15 described in Example 1 was radioactively labeled with ^32 P at the 5'-end of the molecule using γ^32 P-adenosine triphosphate (γ ^32 P-ATP, Amersham) and T4 polynucleotide kinase (Bethesda Research Laboratories):
where the asterisk represents the radiolabel. Separately, a radiolabeled derivative was prepared in which ^32 P was introduced at the 3'most internucleotide link using α^32 P-deoxycytidine triphosphate (dCTP) and DNA polymerase I (Bethesda Research Laboratories):
The reaction catalyzed by DNA polymerase I is between 5'-GAGCACCATGGTTT and dCTP and requires the complementary DNA strand as a template. A 50 fold excess of unlabeled MA-15 was added after the reaction to insure that the labeled derivative is single stranded. These procedures are standard methods for radiolabeling DNA fragments, see for example, Maniatis, T., Fritsch, E. F., and Sambrook, J., Molecular Cloning: A Laboratory Manual, Cold Spring Harbor Laboratory, New York, pp. 114-115 and 122-126, 1982, which is incorporated herein by reference. […]
The modified oligonucleotide was labeled with ^32 P at the 5'-terminal OH group using γ^32 P-ATP and T4 polynucleotide kinase as described in Example 3. […] Aliquots were removed at various times and analyzed by polyacrylamide gel electrophoresis. […]

In another series the test system is c-myc mRNA. Briefly: Inhibition of expression of c-myc in MOPC 315 cells (Northern blot). The following applies: either 1 or 5 micromolar, 4 hours at 37° C. It counts as cell-based, murine. The protocol:
MOPC 315 cells were maintained in RPMI 1640 culture media containing 10% fetal calf serum at 37° C. with 7% CO2. Log phase MOPC 315 cells were harvested by centrifugation (250×g for 19 minutes at 23° C.) and resuspended at a density of 5×10^6 /ml in HB101 serum-free medium (DuPont). One ml aliquots of this cell suspension were incubated in the presence of oligonucleotide for 4 hours at 37° C. and 7% CO2. Additional one ml aliquots were incubated concommitantly without oligonucleotide. Cells from each group were then collected by centrifugation. Total cellular RNA was prepared as described by Chirgwin et al., Biochemistry 18, 5294-5299 (1979), and analyzed by Northern blots as described in Example 7. The filters were probed with an oligonucleotide complementary to c-myc mRNA labeled with ^32 P using polynucleotide kinase and γ^32 P-ATP as in previous examples.

Turning to 5'-GAGCACCATGGTTTC [MA-15], the “inhibition of β-globin synthesis” value with β-globin mRNA is recorded as “inhibits β-globin synthesis to some extent”. Moreover, in series [1], the “inhibition of translation of the targeted mRNA” value is reported as “very effectively inhibited translation of the targeted mRNA”; the “% Inhibition Of Globin Synthesis, +poly rA/oligo dT” value was 3%; the “% Inhibition Of Globin Synthesis, -poly rA/oligo dT” value is reported as 51%. Besides, in series [2] (K562 cell extracts), the “degradation by 5'- to 3'-exonucleolytic activity in K562 cell extracts” value is listed as “A slower 5'- to 3'-exonucleolytic activity was also observed” and the “primary pathway of degradation in K562 cell extracts” value is reported as 3' to 5' exonucleolytic activity. Also, in series [2] (K562 cell extracts vs blood), the “rate of degradation compared with that in blood” value is recorded as “much faster than that in blood”. In series [2] (K562 cell extracts, 3' to 5' exonucleolytic activity, 37° C.), the “half-life for cleavage of the 3'-terminal internucleotide link” value was found to be 2 min. The “half-life for cleavage of the 5'-terminal nucleotide unit from the chain” value in series [2] (K562 cell extracts, 5'- to 3'-exonucleolytic activity, 37° C.) was determined as 20 min. Further, the “decrease in intensity of the α-globin mRNA band (RNaseH cleavage)” value in the series with mouse α-globin mRNA is “marked decrease in the intensity of the band for α-globin mRNA”. Further, the “pathway of degradation in human blood” value in series [3] is “sequential exonucleolytic cleavage of the strand from the 3'-toward the 5'-end of the chain”.
As for “5'-T CCCTTCATCCCGAAGTT C (antisense TCCCTTCATCCCGAAGTTC; TCDM group attached, position not given here) [anti-albumin oligonucleotide, oligonucleotide complementary to human albumin mRNA; ( ) again represents the TCDM group]”, in the series with c-myc mRNA, the “effect on c-myc mRNA levels” value was “no effect”.
Regarding 5'-TGTCCAAGTGATTCAGGCCATCGTT [CODMB-25], in series [1], the “inhibition of translation of the targeted mRNA” value is “very effectively inhibited translation of the targeted mRNA”; the “% Inhibition Of Globin Synthesis, +poly rA/oligo dT” value is listed as 5%; the “% Inhibition Of Globin Synthesis, -poly rA/oligo dT” value turned out to be 61%.
